For 16 compounds, TGI and GI50 results are on record in PubChem BioAssay (NCI).

Among the test systems are MDA-N; MDA-MB-231 breast; T-47D breast; HS 578T breast; 786-0 renal; PC-3 prostate; DU-145 prostate; DLD-1 colon; KM20L2 colon; HOP-18 NSCLC; LXFL 529 NSCLC; DMS 273 small cell lung; SNB-78 CNS; RXF-631 renal; DMS 114 small cell lung; XF 498 CNS; M19-MEL melanoma; P388/ADR leukemia; SN12K1 renal.
Assay in all cases: NCI tumour cell line growth inhibition, 48 h

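How tested: cells in 96-well plates exposed to compound for 48 hours at five concentrations. GI50 is the concentration that inhibits growth by half. TGI: total growth inhibition.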

For `CN(C)CCCc1cccnc1`, the TGI in the experiment with MDA-N, in the experiment on MDA-MB-231 breast, with T-47D breast, in the experiment on HS 578T breast, with 786-0 renal and with PC-3 prostate was over 100 µM throughout. Also, the TGI with DU-145 prostate was over 100 µM.

In the case of `O/N=C(\C=N\O)c1ccc2c(c1)Sc1ccccc1O2`, the TGI was 38.4 µM with MDA-MB-231 breast; 74.7 µM in the experiment on T-47D breast; over 100 µM in the experiment with HS 578T breast; 38.6 µM in the experiment on 786-0 renal; 66.1 µM in the experiment with PC-3 prostate; over 100 µM with DU-145 prostate.

In the case of `CC(C)=CCC[C@](C)(O)[C@H]1CC[C@]2(C)[C@@H]1[C@H](O)C[C@@H]1[C@@]3(C)CC[C@H](O[C@@H]4O[C@H](CO)[C@@H](O)[C@H](O)[C@H]4O)C(C)(C)[C@@H]3CC[C@]12C`, the TGI with MDA-N amounted to 36.3 µM; with MDA-MB-231 breast, 36.4 µM; with T-47D breast it was 34 µM; in the experiment on HS 578T breast it was 47 µM; in the experiment with 786-0 renal, 36 µM; in the experiment with PC-3 prostate, 31.9 µM. The compound further gave a TGI with DU-145 prostate of 35.1 µM.

For the compound `CC(N)C(=O)c1ccc(O)cc1` (centres undefined), the TGI with DLD-1 colon, in the experiment on KM20L2 colon, in the experiment with HOP-18 NSCLC, in the experiment on LXFL 529 NSCLC, in the experiment on DMS 273 small cell lung and with SNB-78 CNS was over 100 µM throughout. The TGI with RXF-631 renal, with 786-0 renal and in the experiment on DMS 114 small cell lung was over 100 µM each time.

Turning to `COc1cc(C2c3cc4c(cc3OC3(O)COC(=O)C23)OCO4)cc(OC)c1OC` (centres undefined), the TGI in the experiment on DLD-1 colon is over 100 µM; in the experiment with KM20L2 colon it was 54.3 µM; with HOP-18 NSCLC it was over 100 µM; with LXFL 529 NSCLC, over 100 µM; in the experiment on DMS 273 small cell lung, over 100 µM; in the experiment with XF 498 CNS, 96.7 µM. The TGI in the experiment with SNB-78 CNS, with M19-MEL melanoma, in the experiment on RXF-631 renal and in the experiment on DMS 114 small cell lung was over 100 µM each time.

In the case of `Nc1ccc2cc(S(=O)(=O)O)cc(O)c2c1N=Nc1ccc(NC(=O)Nc2ccc(N=Nc3c(N)ccc4cc(S(=O)(=O)O)cc(O)c34)c(S(=O)(=O)O)c2)cc1S(=O)(=O)O`, the TGI in the experiment on DLD-1 colon, in the experiment on HOP-18 NSCLC, in the experiment with DMS 273 small cell lung, with XF 498 CNS, in the experiment on SNB-78 CNS and in the experiment with P388/ADR leukemia was over 100 µM throughout. Further, the TGI with M19-MEL melanoma, in the experiment with SN12K1 renal and in the experiment with DMS 114 small cell lung was over 100 µM in each case.

Turning to `COc1nc(/C=N/NC(N)=S)nc(OC)n1`, the TGI in the experiment on DLD-1 colon, with KM20L2 colon, in the experiment on HOP-18 NSCLC, in the experiment on LXFL 529 NSCLC, in the experiment on DMS 273 small cell lung and with XF 498 CNS was over 100 µM in each case. Further, the TGI in the experiment on SNB-78 CNS, in the experiment on M19-MEL melanoma, in the experiment with RXF-631 renal, with 786-0 renal and in the experiment on DMS 114 small cell lung was over 100 µM in each case.

As to `CCc1ccc(CCC(=O)O)nc1`, the TGI in the experiment with MDA-N, with MDA-MB-231 breast, with T-47D breast, with HS 578T breast, with 786-0 renal and in the experiment with PC-3 prostate was over 100 µM each time. In the experiment on DU-145 prostate, this compound registered a TGI of over 100 µM.

As to `COc1ccc2c(C)cc(N/N=C/c3sccc3C)nc2c1`, the TGI in the experiment with MDA-N was determined as 27.3 µM; with MDA-MB-231 breast, 5.9 µM; with T-47D breast, 33.6 µM; in the experiment on HS 578T breast it was 36.7 µM; in the experiment with PC-3 prostate it was 31.9 µM; in the experiment with DU-145 prostate, 23.3 µM.

With `CCOc1ccc(C2=C(Cl)c3cc(OC)c(OC)cc3C2Cl)cc1` (centres undefined), the TGI in the experiment with DLD-1 colon is over 100 µM; with KM20L2 colon, over 100 µM; in the experiment with HOP-18 NSCLC it was over 100 µM; with LXFL 529 NSCLC it was over 100 µM; in the experiment on DMS 273 small cell lung, over 100 µM; with XF 498 CNS, 42.9 µM. The TGI was over 100 µM with SNB-78 CNS, over 100 µM in the experiment on M19-MEL melanoma and 56.2 µM with DMS 114 small cell lung.

With `Cc1c2ccccc2c(CO)c2cc(F)c3ccccc3c12`, the TGI was found to be 43.6 µM in the experiment on DLD-1 colon; 48.6 µM in the experiment on KM20L2 colon; 89.9 µM with HOP-18 NSCLC; 32 µM with DMS 273 small cell lung; 51 µM in the experiment on XF 498 CNS; 69.1 µM in the experiment on SNB-78 CNS. Further, the TGI in the experiment on M19-MEL melanoma is over 100 µM; in the experiment on RXF-631 renal, 30.7 µM; with DMS 114 small cell lung, 34.2 µM.

Turning to `CN1C[C@H]2[C@@H](C1=O)[C@H](c1ccc([N+](=O)[O-])cc1)ON2C`, the TGI with MDA-N, in the experiment on MDA-MB-231 breast, in the experiment with T-47D breast, with HS 578T breast, in the experiment with PC-3 prostate and in the experiment on DU-145 prostate was over 100 µM throughout.

On to `O=C1ON(Cc2ccccc2)C(c2ccccc2)N1c1ccccc1` (centres undefined), for which the TGI in the experiment on DLD-1 colon, in the experiment on KM20L2 colon, with HOP-18 NSCLC, in the experiment on DMS 273 small cell lung, in the experiment with XF 498 CNS and in the experiment with SNB-78 CNS was over 100 µM in each case. The TGI in the experiment with P388/ADR leukemia, in the experiment on M19-MEL melanoma, in the experiment on SN12K1 renal and in the experiment on DMS 114 small cell lung was over 100 µM each time.

Consider `COc1cc(C2C(Cl)C(=O)N2NC(=O)c2ccc(NC(C)=O)cc2)cc(Br)c1O` (centres undefined), for which the TGI in the experiment on DLD-1 colon, with HOP-18 NSCLC, with LXFL 529 NSCLC and with M19-MEL melanoma was over 100 µM in each case.

For `CCCCCCNC(=O)c1cc(C#Cc2cc(OC)ccc2OC)ccc1OC`, the TGI was over 100 µM with MDA-N; over 100 µM in the experiment on MDA-MB-231 breast; 11 µM with T-47D breast; over 100 µM with HS 578T breast; over 100 µM in the experiment with 786-0 renal; over 100 µM in the experiment on PC-3 prostate. Besides, in the experiment with DU-145 prostate, the TGI is over 100 µM. Further, the GI50 in the experiment on DU-145 prostate is over 100 µM.

Turning to `c1ccc2c(c1)ccc1ncccc12`, the TGI in the experiment with MDA-MB-231 breast, in the experiment on T-47D breast, in the experiment on HS 578T breast, in the experiment with 786-0 renal, in the experiment on PC-3 prostate and in the experiment on DU-145 prostate was over 100 µM each time.
